Laboratory results published in US20250304587A1, “WEE1 INHIBITOR, PREPARATION THEREFOR AND USE THEREOF” (JIANGSU TASLY DIYI PHARMACEUTICAL CO., LTD., priority 2022, published 2025).

Columns and labels:
OVCAR-3 cells = assay: Cell Titer-Glo anti-proliferation, OVCAR-3 cells; format: cell-based; conditions: 3 days, read-out: Anti-proliferative activity OVCAR-3 (IC50 class)
Procedure: (§1) A. Evaluation of the Anti-Proliferative Effect of Compounds on BxPC3, HT-29 and OVCAR-3 Cells by the Cell Titer-Glo Method
(§2) Compound solutions of different concentration gradients were prepared. […] The cell growth group without compound was used as a positive control (maximum signal control) and the medium was used as a negative control (minimum signal control), while ensuring that the final level of DMSO in each reaction well was 0.2%. After removing the medium from the 384-well plate, 25 μl of the configured compound at different concentrations was transferred into the well plate and the compound and cells were incubated in the cell incubator at 37° C. with 5% CO2 for 3 days.
(§3) The 384-well plates were removed from the cell incubator and allowed to equilibrate for 1 h to room temperature. 25 μl of Cell Titer-Glo assay was added to each well, lysed on a shaker for 2 min and then read out (Luminescence) using a BMG PHERAStar after 10 min incubation. Calculate the inhibition rate from the luminescence signal.
(§4) to calculate the rate of inhibition of the cells by different concentrations of the compounds. The IC50 of the compound on cell activity inhibition was calculated by fitting a log(inhibitor) vs. response-Variable slope model to GraphPad Prism 6. The fitted equation was: Y=Bottom+(Top-Bottom)/(1+10^((Log IC50−X)*HillSlope)), where Y represents the rate of inhibition and X represents the concentration of the known compound after Log.

plasma protein = assay: Plasma protein binding (equilibrium dialysis), mouse; conditions: mouse plasma, 1 μM, 5 h dialysis
Procedure: Sample preparation: The compound was dissolved in DMSO to a stock solution of 10 mM, then the compound was diluted with PBS to a secondary stock solution of 0.02 mM, and then the above 0.02 mM was diluted to 1 μM using blank plasma, which was the sample to be incubated.
Dialysis set-up preparation: 400 μL of blank PBS was first added to the white wells of the equilibrated dialysis plate and 200 μL of the configured plasma sample was added to the red wells, and the dialysis plate was sealed with a sealing film.
Recovery plate preparation: Two 96-well deep-well plates, labelled T0 and T5, were prepared and all plasma samples were added at n=2. 300 μL of acetonitrile (Verapamil-HCl, 4 ng/mL) was added directly to the TO plate, followed by 50 μL of blank PBS mix well for 5 min and left to stand in a 4° C. refrigerator until the end of the incubation.
Experimental Operation: The dialysis device and the T5 plate were incubated together for 5 h in a microplate thermostatic shaker (37° C., using 300 rpm or minimum speed). At the end of the incubation, 300 μL of acetonitrile (Verapamil-HCl, 4 ng/mL) was added and 50 μL of PBS solution was added. At the end of the dialysis incubation, a new 96-well deep well plate was taken. Add 50 μL of plasma well sample to the corresponding position of the 96-well plate, 300 μL of acetonitrile and 50 μL of blank PBS; take 50 μL of buffer well sample to the corresponding position of the 96-well plate, then add 300 μL of acetonitrile and 50 μL of blank plasma. Add 300 μL of acetonitrile (Verapamil-HCl, 4 ng/mL) to the plasma-containing wells of the T5 plate, and then 50 μL of PBS solution was added. Shake for 5 min to fully precipitate the proteins and centrifuge at 20,000 g for 10 min at 4° C. Add 200 μL of supernatant to 200 μL of pure water, mix well and perform LC-MS/MS analysis.
• Plasma protein binding rate=[(Rpe−Rb)/Rpe]×100% • Recovery=[(Rpe+Rb)/R5 h]×100% • Stability=(R5/R0)×100%
• Rpe=ratio of plasma-side testing sample peak area to internal standard • Rb=ratio of buffer side testing sample peak area to internal standard • R5=ratio of incubator stability sample peak area to internal standard • R0=ratio of refrigerator stability sample peak area to internal standard

HT-29 cells = assay: Cell Titer-Glo anti-proliferation, HT-29 cells; format: cell-based, human; conditions: 3 days, read-out: Anti-proliferative activity HT-29 (IC50 class)
Procedure: as §1, §2, §3, §4

BxPC3 cells = assay: Cell Titer-Glo anti-proliferation, BxPC3 cells; format: cell-based, human; conditions: 3 days, read-out: Anti-proliferative activity BxPC3 (IC50 class)
Procedure: as §1, §2, §3, §4

HUVEC cells = assay: Cell Titer-Glo anti-proliferation, normal cells HUVEC; format: cell-based
Procedure: as §2, §3, §4
(§5) B. Evaluation of the Anti-Proliferative Effect of Compounds by the Cell Titer-Glo Method on Normal Cells HUVEC and HK2.
(§6) The test method is the same as the anti-proliferative activity evaluation of tumor cells.

HK2 cells = assay: Cell Titer-Glo anti-proliferation, normal cells HK2; format: cell-based
Procedure: as §2, §3, §4, §5, §6

Caco-2 cells = assay: Membrane permeability in Caco-2 model; format: in vitro ADME; conditions: for Efflux Ration: Caco2; for Papp A to B / Papp B to A: Caco2, 10 μM, 90 min
Procedure: Caco-2 cells were purchased from the American Model Tissue Cell Collection (Rockville, MD). The cell culture medium was modified Eagle's medium (MEM) containing 10% inactivated fetal bovine serum and 1% non-essential amino acids. […] The cells were incubated for 21-28 days after inoculation for transport experiments and the apparent permeability (Papp) of Lucifer Yellow was used to characterize and verify the compactness of the cell monolayer. […] After the incubation, dilute the samples on the apical side and basolateral side, and the concentrations of compounds on the apical and basolateral sides were detected by LC-MS/MS, and the concentrations of the compounds were quantified by standard curve.

Wee1 protein = Wee1 protein (Homo sapiens (Human), UniProt P30291); assay: TR-FRET binding of compound to Wee1 protein and Tracer 178; conditions: Tracer 178, read-out: IC50, inhibitory activity against Wee1 kinase
Procedure: First, solutions of the compounds in different concentration gradients were prepared. The compounds were dissolved in DMSO and the compounds were diluted 4 folds with a total of 10 dose points and 2 parallel replicates for each concentration.
The IC50 for inhibition of enzyme activity by the compounds was then calculated using GraphPad Prism 6 and fitted with a log (inhibitor) vs. response-Variable slope mode. The fitting equation was: Y=Bottom+(Top−Bottom)/(1+10^((Log IC50−X)*HillSlope)), where Y represents the percentage of residual enzyme activity known and X represents the known concentration of compound after the logarithm.

hERG potassium channel = hERG potassium channel (Homo sapiens (Human), UniProt Q12809); assay: hERG potassium channel inhibition, patch clamp in CHO hERG cells
Chain of hERG potassium channel (Q12809 whole entry): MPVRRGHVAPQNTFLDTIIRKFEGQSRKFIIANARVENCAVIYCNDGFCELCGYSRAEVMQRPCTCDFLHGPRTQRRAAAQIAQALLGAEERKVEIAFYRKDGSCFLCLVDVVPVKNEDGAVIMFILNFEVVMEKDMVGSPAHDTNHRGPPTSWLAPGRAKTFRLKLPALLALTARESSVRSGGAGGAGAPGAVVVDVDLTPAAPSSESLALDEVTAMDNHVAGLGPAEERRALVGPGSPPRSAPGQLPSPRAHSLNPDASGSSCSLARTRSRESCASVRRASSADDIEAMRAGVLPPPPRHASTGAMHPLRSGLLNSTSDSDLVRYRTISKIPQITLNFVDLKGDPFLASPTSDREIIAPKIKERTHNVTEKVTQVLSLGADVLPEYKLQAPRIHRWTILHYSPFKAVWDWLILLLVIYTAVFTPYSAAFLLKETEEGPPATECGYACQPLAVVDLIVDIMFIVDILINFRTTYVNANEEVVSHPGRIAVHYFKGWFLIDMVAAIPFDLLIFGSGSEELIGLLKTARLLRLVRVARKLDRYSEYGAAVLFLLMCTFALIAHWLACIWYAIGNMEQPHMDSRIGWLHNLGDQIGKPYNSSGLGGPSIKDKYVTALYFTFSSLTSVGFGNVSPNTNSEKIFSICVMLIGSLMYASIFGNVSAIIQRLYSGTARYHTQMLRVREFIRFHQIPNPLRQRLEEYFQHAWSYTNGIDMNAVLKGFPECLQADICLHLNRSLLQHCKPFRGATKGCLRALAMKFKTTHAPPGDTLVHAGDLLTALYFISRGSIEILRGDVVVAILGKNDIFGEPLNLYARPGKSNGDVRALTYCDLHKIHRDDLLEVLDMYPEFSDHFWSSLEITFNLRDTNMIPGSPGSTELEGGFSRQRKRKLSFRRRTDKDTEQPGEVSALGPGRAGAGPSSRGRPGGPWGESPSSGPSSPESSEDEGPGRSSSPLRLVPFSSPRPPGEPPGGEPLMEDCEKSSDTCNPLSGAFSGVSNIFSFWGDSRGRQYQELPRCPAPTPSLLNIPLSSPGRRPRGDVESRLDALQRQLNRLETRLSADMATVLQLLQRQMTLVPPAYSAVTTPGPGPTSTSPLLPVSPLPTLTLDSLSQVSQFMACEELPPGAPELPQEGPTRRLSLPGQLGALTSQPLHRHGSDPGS
Procedure: The cell line used for the patch clamp assay was a 10th generation CHO cell overexpressing hERG potassium channel cDNA. CHO hERG cells were cultured in Petri dishes or flasks at 37° C. in a 5% CO2 incubator. Cells were dropped onto circular slides 24-48 hours prior to electrophysiological experiments and cultured in cell culture medium and used for experiments after the cells had been adhered.
Cell culture medium (purchased from Invitrogen) Composition: • Ham's F12 medium • 10% (v/v) heat inactivated FBS • 100 μg/ml Hygromycin B (thaumatin) • 100 μg/ml Geneticin (Genomycin, G418)
Compound powders are dissolved in the extracellular solution and are subjected to a routine 5 to 10 minute sonication and shaking to ensure complete dissolution of the compound.
The final concentrations of compounds used for electrophysiological assays were 5, 20 μM and the final concentration of DMSO was 0.1%.
Cell membrane currents were recorded using a HEKA EPC-10 USB patch-clamp amplifier (HEKA Elektronik, Germany). • 1) A coverslip with a large number of uniformly growing individual CHO hERG cells on its surface was taken. Place in a continuous recording cell on an inverted microscope, perfused with extracellular fluid (approximately 1 ml per minute) and recorded continuously, waiting for the current to stabilize. • 2) Record HERG channel currents for individual cells using standard whole cell recording mode. The membrane voltage is first clamped at −80 mV and the cell is given a +20 mV stimulus for 5 s to activate the hERG potassium channel, then repolarized to −50 mV for 5 s to generate an outward tail current, which is continuously perfused until the current is stable, at which point the peak tail current is the control current value. • 3) The extracellular solution containing the drug to be tested was then perfused and recorded until the inhibitory effect of the drug on the hERG current reached a steady state, at which point the peak tail current was the post-drug current value. • 4) The cells are again perfused with the extracellular solution until the hERG current returns to or approaches the level prior to the addition of the drug, then the perfusion can be continued to test other concentrations or drugs. One or more compound or drug concentrations may be tested on each cell. • 5) Cisapride (C4740-10 mg, Sigma) is used as a positive control in the experiment to ensure that the cells used respond properly.

Chain of Wee1 protein (P30291 whole entry): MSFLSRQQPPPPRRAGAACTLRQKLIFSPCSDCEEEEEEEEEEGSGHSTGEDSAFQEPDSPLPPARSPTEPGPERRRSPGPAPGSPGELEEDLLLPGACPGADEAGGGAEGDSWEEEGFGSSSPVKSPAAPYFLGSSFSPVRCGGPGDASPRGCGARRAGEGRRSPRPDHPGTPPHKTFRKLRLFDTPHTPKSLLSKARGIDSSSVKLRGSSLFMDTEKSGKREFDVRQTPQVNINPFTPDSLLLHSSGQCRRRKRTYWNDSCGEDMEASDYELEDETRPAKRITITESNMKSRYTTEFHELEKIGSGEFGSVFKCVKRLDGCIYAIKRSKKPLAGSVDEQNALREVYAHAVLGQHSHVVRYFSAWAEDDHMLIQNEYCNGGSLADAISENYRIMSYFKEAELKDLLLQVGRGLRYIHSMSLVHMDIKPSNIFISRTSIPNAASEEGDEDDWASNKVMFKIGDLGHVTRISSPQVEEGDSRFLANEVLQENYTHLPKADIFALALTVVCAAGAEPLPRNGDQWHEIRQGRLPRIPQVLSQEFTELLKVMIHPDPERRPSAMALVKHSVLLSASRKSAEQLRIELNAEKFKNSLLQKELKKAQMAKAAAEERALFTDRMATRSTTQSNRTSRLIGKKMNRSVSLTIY

SMILES | IC50 (OVCAR-3 cells) | Plasma Protein binding (PPB) Mouse (plasma protein) | IC50 (HT-29 cells) | IC50 (BxPC3 cells) | IC50 (HUVEC cells) | IC50 (HK2 cells) | Efflux Ration (Caco-2 cells) | Papp A to B (Caco-2 cells) | Papp B to A (Caco-2 cells) | IC50 (Wee1 protein) | hERG Inhibition (hERG potassium channel; test concentration 5 μM) | hERG Inhibition (hERG potassium channel; test concentration 20 μM)
C=CCn1c(=O)c2cnc(Nc3ccc(N4CCN(C)CC4)cc3)nc2n1-c1ccc2c(n1)C(O)(CC)C1(CC2)CC1 (racemic) [Compound 21] | 100 to 1000 nM | 98.86% | 100 to 1000 nM | 1000 to 2000 nM |  |  |  |  |  |  |  | 
C=CCn1c(=O)c2cnc(Nc3ccc(N4C[C@H]5CN(C)C[C@H]5C4)cc3)nc2n1-c1ccc2c(n1)C(O)(C(F)(F)F)C1(CC1)C2 (mixture of isomers) [Compound 55] | 100 to 1000 nM |  | 100 to 1000 nM | 100 to 1000 nM | > 10000 nM | 930 nM |  |  |  |  |  | 
C=CCn1c(=O)c2cnc(Nc3ccc(N4CCN(C)CC4)cc3)nc2n1-c1ccc2c(n1)C(C)(O)C1(CC1)C2 (single isomer, unassigned) [Compound 3b] | 100 to 1000 nM |  | 100 to 1000 nM | 1000 to 2000 nM |  |  | 17.90 | 0.73 10^−6 cm/s | 13.07 10^−6 cm/s |  |  | 
C=CCn1c(=O)c2cnc(Nc3ccc(N4CCN(C)CC4)cc3)nc2n1-c1ccc2c(n1)[C@@H](O)C1(CC2)CC1 (single isomer, unassigned) [Compound 4a] | 2000 to 5000 nM |  | 1000 to 2000 nM | 2000 to 5000 nM |  |  |  |  |  | ≤ 5 nM |  | 
C=CCn1c(=O)c2cnc(Nc3ccc(N4CCN(C)CC4)c(C)c3)nc2n1-c1ccc2c(n1)[C@@](C)(O)C1(CC2)CC1 (single isomer, unassigned) [Compound 23a] | 100 to 1000 nM |  | 100 to 1000 nM | 100 to 1000 nM |  |  |  |  |  | ≤ 5 nM |  | 
C=CCn1c(=O)c2cnc(Nc3ccc(N4CCC(N(C)C)CC4)c(C)c3)nc2n1-c1ccc2c(n1)[C@@H](O)C1(CC2)CC1 (single isomer, unassigned) [Compound 41b] | 100 to 1000 nM |  | 100 to 1000 nM | 100 to 1000 nM | > 10000 nM | 550 nM |  |  |  | ≤ 5 nM |  | 
C=CCn1c(=O)c2cnc(Nc3ccc(N4CCC5(CCN(C)CC5)CC4)cc3)nc2n1-c1ccc2c(n1)[C@](C)(O)C1(CC2)CC1 (single isomer, unassigned) [Compound 44a] |  |  |  |  | 1030 nM | 360 nM |  |  |  | ≤ 5 nM |  | 
C=CCn1c(=O)c2cnc(Nc3ccc(N4CCC(N(C)C)CC4)c(C)c3)nc2n1-c1ccc2c(n1)[C@H](O)C1(CC2)CC1 (single isomer, unassigned) [Compound 48b] | 100 to 1000 nM |  | 100 to 1000 nM | 100 to 1000 nM |  |  |  |  |  |  | 73.67 ± 0.93% | 90.92 ± 0.49%
C=CCn1c(=O)c2cnc(Nc3ccc(N4CC5CC(C4)N5CC)cc3)nc2n1-c1ccc2c(n1)[C@](C)(O)C1(CC2)CC1 (single isomer, unassigned) [Compound 51a] | 100 to 1000 nM |  | 100 to 1000 nM | 100 to 1000 nM |  |  |  |  |  | ≤ 5 nM |  | 
C=CCn1c(=O)c2cnc(Nc3ccc(N4CCN(C)[C@@H](C)C4)cc3)nc2n1-c1ccc2c(n1)[C@@H](O)C1(CC2)CC1 (single isomer, unassigned) [Compound 56b] | 100 to 1000 nM |  | 100 to 1000 nM | 100 to 1000 nM | > 10000 nM | 990 nM |  |  |  |  |  | 
C=CCn1c(=O)c2cnc(Nc3ccc(N4CCN(C(C)C)CC4)cc3)nc2n1-c1ccc2c(n1)[C@@H](O)C1(CC2)CC1 (single isomer, unassigned) [Compound 57b] | 100 to 1000 nM |  | 100 to 1000 nM | 100 to 1000 nM | > 10000 nM | 920 nM |  |  |  |  |  | 
C=CCn1c(=O)c2cnc(Nc3ccc(N4CCC5(CCN(C)CC5)CC4)c(C)c3)nc2n1-c1ccc2c(n1)[C@H](O)C1(CC2)CC1 (single isomer, unassigned) [Compound 61b] | 100 to 1000 nM |  | 100 to 1000 nM | 100 to 1000 nM | 4460 nM | 490 nM |  |  |  | 5 to 10 nM |  | 
C=CCn1c(=O)c2cnc(Nc3ccc(N4CCN(C)CC4)cc3)nc2n1-c1ccc2c(c1)N(CC)C(=O)C21CC1 [Compound 1] |  |  | 1000 to 2000 nM | 5000 to 10000 nM |  |  |  |  |  | 10 to 100 nM |  | 
C=CCn1c(=O)c2cnc(Nc3ccc(N4CCN(C)CC4)cc3)nc2n1-c1ccc2c(n1)N(CC)C(=O)C21CCC1 [Compound 2] |  |  | 1000 to 2000 nM | 2000 to 5000 nM |  |  |  |  |  | 10 to 100 nM |  | 
C=CCn1c(=O)c2cnc(Nc3ccc(N4CCN(C)CC4)cc3)nc2n1-c1ccc2c(n1)C(O)C1(CC2)CC1 (centres unmarked) [Compound 4] | 1000 to 2000 nM |  | 100 to 1000 nM | 1000 to 2000 nM |  |  |  |  |  | ≤ 5 nM |  | 
C=CCn1c(=O)c2cnc(Nc3ccc(N4CCN(C)CC4)cc3)nc2n1-c1ccc2c(n1)C(C)(O)C1(CC2)CC1 (centres unmarked) [Compound 6] | 100 to 1000 nM | 97.2% | 100 to 1000 nM | 1000 to 2000 nM |  |  |  |  |  | ≤ 5 nM |  | 
C=CCn1c(=O)c2cnc(Nc3ccc(N4CCN(C)CC4)cc3)nc2n1-c1ccc2c(n1)[C@@](C)(O)C1(CC2)CC1 [Compound 6a] | 100 to 1000 nM |  | 100 to 1000 nM | 1000 to 2000 nM |  |  |  |  |  | ≤ 5 nM |  | 
C=CCn1c(=O)c2cnc(Nc3ccc(N4CC5CC(C4)N5C)cc3)nc2n1-c1ccc2c(n1)C(C)(O)C1(CC2)CC1 (centres unmarked) [Compound 7] | 100 to 1000 nM |  | 100 to 1000 nM | 100 to 1000 nM |  |  |  |  |  | ≤ 5 nM | 88.02 ± 3.87% | 95.13 ± 1.06%
C=CCn1c(=O)c2cnc(Nc3ccc(N4CCN(C)CC4)cc3)nc2n1-c1ccc2c3c(n(CC)c2n1)OCCC3 [Compound 17] | 100 to 1000 nM |  | 100 to 1000 nM | 1000 to 2000 nM |  |  |  |  |  | ≤ 5 nM |  | 
C=CCn1c(=O)c2cnc(Nc3ccc(N4CCN(C)[C@@H](C)C4)cc3)nc2n1-c1ccc2c(n1)C(O)(CC)C1(CC1)C2 (some centres unmarked) [Compound 30] | 1000 to 2000 nM |  | 100 to 1000 nM | 1000 to 2000 nM |  |  |  |  |  | ≤ 5 nM |  | 
C=CCn1c(=O)c2cnc(Nc3ccc(N4CCC5(CCN(C)CC5)CC4)cc3)nc2n1-c1ccc2c(n1)[C@@H](O)C1(CC2)CC1 [Compound 37a] | 100 to 1000 nM |  | 100 to 1000 nM | 100 to 1000 nM |  |  |  |  |  | 5 to 10 nM |  | 
C=CCn1c(=O)c2cnc(Nc3ccc(N4CCC5(CCN(C)CC5)CC4)cc3)nc2n1-c1ccc2c(n1)[C@H](O)C1(CC2)CC1 [Compound 38b] | 100 to 1000 nM |  | 100 to 1000 nM | 100 to 1000 nM |  |  |  |  |  | 5 to 10 nM |  | 
[2H][C@]1(O)c2nc(-n3c4nc(Nc5ccc(N6CC7CC(C6)N7C(C)C)cc5)ncc4c(=O)n3CC=C)ccc2CCC12CC2 [Compound 39b] |  |  |  |  |  |  | 35.84 | 0.38 10^−6 cm/s | 13.62 10^−6 cm/s |  | 47.26 ± 2.27% | 67.24 ± 1.32%
C=CCn1c(=O)c2cnc(Nc3ccc(N4CC5CC(C4)N5C(C)C)cc3)nc2n1-c1ccc2c(n1)[C@H](O)C1(CC2)CC1 [Compound 39b] | 100 to 1000 nM |  | 100 to 1000 nM | 100 to 1000 nM | > 10000 nM | 730 nM |  |  |  | 5 to 10 nM |  | 
[2H][C@@]1(O)c2nc(-n3c4nc(Nc5ccc(N6CCC(N(C)C)CC6)c(C)c5)ncc4c(=O)n3CC=C)ccc2CCC12CC2 [Compound 41b] |  | 96.26% |  |  |  |  |  |  |  |  |  | 
C=CCn1c(=O)c2cnc(Nc3ccc(N4CCC(N(C)C)CC4)cc3)nc2n1-c1ccc2c(n1)[C@@](C)(O)C1(CC2)CC1 [Compound 65a] | 100 to 1000 nM |  | 100 to 1000 nM | 100 to 1000 nM | > 10000 nM | 700 nM | 9.55 | 0.96 10^−6 cm/s | 9.17 10^−6 cm/s | 5 to 10 nM |  | 
